Test results: ChEMBL document CHEMBL4819062, “Novel iodinated quinazolinones bearing sulfonamide as new scaffold targeting radiation induced oxidative stress” (Bioorg Med Chem Lett, 2021)
Activity calls are given as the source filed them. The rule behind the calls is not given here.

Key:
[1] = target: T1, Nuclear factor erythroid 2-related factor 2 (Mus musculus) (UniProt Q60795); assay: Activation of Nrf2 in mouse Hepa1c1c7 cells assessed as concentration required to double induction to increase in NQO1 activity; format: cell-based; conditions: filed as activator
T1 sequence (whole entry): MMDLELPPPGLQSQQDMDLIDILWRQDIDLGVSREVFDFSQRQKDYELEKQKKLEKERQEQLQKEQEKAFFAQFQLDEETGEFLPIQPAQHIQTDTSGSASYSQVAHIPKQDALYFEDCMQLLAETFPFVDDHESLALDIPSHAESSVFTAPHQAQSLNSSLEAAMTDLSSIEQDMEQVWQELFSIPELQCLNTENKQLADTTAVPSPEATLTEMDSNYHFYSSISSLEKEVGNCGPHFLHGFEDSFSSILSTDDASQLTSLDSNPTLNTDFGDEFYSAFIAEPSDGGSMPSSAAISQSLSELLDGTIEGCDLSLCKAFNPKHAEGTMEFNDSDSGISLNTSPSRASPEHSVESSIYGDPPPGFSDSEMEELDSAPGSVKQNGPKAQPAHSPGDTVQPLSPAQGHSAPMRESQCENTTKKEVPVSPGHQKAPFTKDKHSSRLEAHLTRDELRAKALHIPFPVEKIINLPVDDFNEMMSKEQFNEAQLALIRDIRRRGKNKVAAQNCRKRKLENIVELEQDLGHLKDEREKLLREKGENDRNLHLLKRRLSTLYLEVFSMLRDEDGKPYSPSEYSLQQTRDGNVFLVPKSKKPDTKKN

Mus musculus [2] = assay: Radioprotective activity in albino mouse assessed as NQO1 level at 50 mg/kg, ip administered for 5 days and on day 5 irradiated with gamma radiation and measured after 3 days (reference value: 192 %); format: functional; conditions: time 8 day
[3] = Antioxidant activity assessed as DPPH radical scavenging activity; format: functional
Mus musculus [4] = assay: Radioprotective activity in albino mouse assessed as ROS level at 50 mg/kg, ip administered for 5 days and on day 5 irradiated with gamma radiation and measured after 3 days (reference value: 39 %); format: functional; conditions: time 8 day
Mus musculus [5] = assay: Radioprotective activity in albino mouse assessed as Nrf2 level at 50 mg/kg, ip administered for 5 days and on day 5 irradiated with gamma radiation and measured after 3 days (reference value: 23 %); format: functional; conditions: time 8 day
[6] = target: T1, Nuclear factor erythroid 2-related factor 2 (Mus musculus); assay: Activation of Nrf2 in mouse Hepa1c1c7 cells assessed as increase in NQO1 activity at 12.5 uM; format: cell-based; conditions: filed as activator
Mus musculus [7] = assay: Radioprotective activity in albino mouse assessed as organism survival rate at 50 mg/kg, ip administered for 5 days and on day 5 irradiated with gamma radiation and measured after 3 days; format: functional, organism-based; conditions: time 8.0 day
[8] = Effect on PLT level in albino mouse at 50 mg/kg, ip administered for 5 days (reference value: 1135 +/- 91.52 10^3/UL); format: functional; conditions: time 5 day
[9] = target: T1, Nuclear factor erythroid 2-related factor 2 (Mus musculus); assay: Activation of Nrf2 in mouse Hepa1c1c7 cells assessed as increase in NQO1 activity at 50 uM; format: cell-based; conditions: filed as activator
[10] = Toxicity in albino mouse assessed as effect on liver weight at 50 mg/kg, ip administered for 5 days; format: organism-based; conditions: in vivo, 120 h, time 5 day
Mus musculus [11] = assay: Radioprotective activity in albino mouse assessed as effect on body weight at 50 mg/kg, ip administered for 5 days and on day 5 irradiated with gamma radiation and measured after 3 days; format: functional, organism-based; conditions: time 8.0 day
[12] = Effect on HCT level in albino mouse at 50 mg/kg, ip administered for 5 days (reference value: 33.45 +/- 1.82 %); format: functional; conditions: time 5 day
Mus musculus [13] = assay: Radioprotective activity in albino mouse assessed as MDA level at 50 mg/kg, ip administered for 5 days and on day 5 irradiated with gamma radiation and measured after 3 days (reference value: 86 %); format: functional; conditions: time 8 day
Mus musculus [14] = assay: Radioprotective activity in albino mouse assessed as RBC level at 50 mg/kg, ip administered for 5 days and on day 5 irradiated with gamma radiation and measured after 3 days (reference value: 5.89 +/- 0.27 10^6/UL); format: functional; conditions: time 8 day
[15] = target: T1, Nuclear factor erythroid 2-related factor 2 (Mus musculus); assay: Activation of Nrf2 in mouse Hepa1c1c7 cells assessed as increase in NQO1 activity at 0.4 uM; format: cell-based; conditions: filed as activator
[16] = Effect on WBC level in albino mouse at 50 mg/kg, ip administered for 5 days (reference value: 2.54 +/- 0.16 10^3/UL); format: functional; conditions: time 5 day
[17] = target: T1, Nuclear factor erythroid 2-related factor 2 (Mus musculus); assay: Activation of Nrf2 in mouse Hepa1c1c7 cells assessed as increase in NQO1 activity at 0.8 uM; format: cell-based; conditions: filed as activator
Mus musculus [18] = assay: Radioprotective activity in albino mouse assessed as WBC level at 50 mg/kg, ip administered for 5 days and on day 5 irradiated with gamma radiation and measured after 3 days (reference value: 0.40 +/- 0.03 10^3/UL); format: functional; conditions: time 8 day
[19] = Effect on RBC level in albino mouse at 50 mg/kg, ip administered for 5 days (reference value: 7.17 +/- 0.15 10^6/UL); format: functional; conditions: time 5 day
Mus musculus [20] = assay: Radioprotective activity in albino mouse assessed as HCT level at 50 mg/kg, ip administered for 5 days and on day 5 irradiated with gamma radiation and measured after 3 days (reference value: 23.05 +/- 0.98 %); format: functional; conditions: time 8 day
Mus musculus [21] = assay: Radioprotective activity in albino mouse assessed as HGB level at 50 mg/kg, ip administered for 5 days and on day 5 irradiated with gamma radiation and measured after 3 days (reference value: 7.98 +/- 0.24 g/dL); format: functional; conditions: time 8 day
[22] = target: T1, Nuclear factor erythroid 2-related factor 2 (Mus musculus); assay: Activation of Nrf2 in mouse Hepa1c1c7 cells assessed as increase in NQO1 activity at 1.6 uM; format: cell-based; conditions: filed as activator
Mus musculus [23] = assay: Radioprotective activity in albino mouse assessed as PLT level at 50 mg/kg, ip administered for 5 days and on day 5 irradiated with gamma radiation and measured after 3 days (reference value: 500.3 +/- 49.73 10^3/UL); format: functional; conditions: time 8 day
[24] = target: T1, Nuclear factor erythroid 2-related factor 2 (Mus musculus); assay: Activation of Nrf2 in mouse Hepa1c1c7 cells assessed as increase in NQO1 activity at 6.25 uM; format: cell-based; conditions: filed as activator
[25] = target: T1, Nuclear factor erythroid 2-related factor 2 (Mus musculus); assay: Activation of Nrf2 in mouse Hepa1c1c7 cells assessed as increase in NQO1 activity at 3.125 uM; format: cell-based; conditions: filed as activator
[26] = target: T1, Nuclear factor erythroid 2-related factor 2 (Mus musculus); assay: Activation of Nrf2 in mouse Hepa1c1c7 cells assessed as increase in NQO1 activity at 25 uM; format: cell-based; conditions: filed as activator
[27] = Effect on HGB level in albino mouse at 50 mg/kg, ip administered for 5 days (reference value: 10.75 +/- 0.63 g/dL); format: functional; conditions: time 5 day
[28] = Toxicity in albino mouse assessed as lethality; conditions: in vivo

Structure (SMILES): NS(=O)(=O)c1ccc(-n2c(SCC(=O)Nc3cccnc3Cl)nc3c(I)cc(I)cc3c2=O)cc1
- CD [1]: 25 µM
- Activity (Mus musculus [2]): 37%
- IC50 [3]: 28 µM
- Activity (Mus musculus [4]): 23%
- Activity (Mus musculus [5]): 15%
- Activity [6]: 1.38
- Activity (Mus musculus [7]): Active
- Activity [8]: 1030 10^3 /uL
- Activity [9]: 2.65
- Activity [10]: Non-Toxic
- Activity (Mus musculus [11]): Active
- Activity [12]: 26.86%
- Activity (Mus musculus [13]): 32%
- Activity (Mus musculus [14]): 6.37 10^6 /uL
- Activity [15]: 0.99
- Activity [16]: 2.08 10^3 /uL
- Activity [17]: 0.98
- Activity (Mus musculus [18]): 1.34 10^3 /uL
- Activity [19]: 6.13 10^6 /uL
- Activity (Mus musculus [20]): 25.83%
- Activity (Mus musculus [21]): 9.9 g/dL
- Activity [22]: 1
- Activity (Mus musculus [23]): 956.8 10^3 /uL
- Activity [24]: 1.17
- Activity [25]: 1.09
- Activity [26]: 2.13
- Activity [27]: 8.54 g/dL
- LD50 [28]: 500 mg/kg
